Measured values reported in publication PMC10184313, “Inhibition of Thiamine Diphosphate-Dependent Enzymes by Triazole-Based Thiamine Analogues” (ACS Medicinal Chemistry Letters, 2023).
Where two headings read alike, the source gives them in different places.

Experiments:
Type in all cases: biochemical
porcine PDHc E1 = target: T1, porcine PDHc E1 (Sus scrofa, UniProt P29804); assay: PDHc E1 inhibitory activity assay (DCPIP reduction)
T1 sequence (P29804 31-390): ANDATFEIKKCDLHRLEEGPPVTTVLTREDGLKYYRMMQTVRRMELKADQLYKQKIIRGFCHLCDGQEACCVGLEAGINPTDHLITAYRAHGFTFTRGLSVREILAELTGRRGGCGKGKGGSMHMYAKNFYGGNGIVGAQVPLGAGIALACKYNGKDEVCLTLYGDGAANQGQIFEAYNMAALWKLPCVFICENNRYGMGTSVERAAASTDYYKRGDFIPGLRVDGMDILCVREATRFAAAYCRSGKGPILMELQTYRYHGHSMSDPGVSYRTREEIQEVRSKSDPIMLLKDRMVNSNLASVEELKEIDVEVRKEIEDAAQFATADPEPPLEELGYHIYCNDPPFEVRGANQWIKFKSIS
Protocol: Enzyme assays – Methods and Results S1
Ligand efficiencies – Calculations S3 […]
Enzyme assays (Methods and Results)
PDHc E1 inhibitory activity assay. Porcine PDHc E1 was purchased from Sigma. Its activity was […]
determined by monitoring 2,6-dichlorophenolindophenol (DCPIP) reduction at 600 nm using a […]
microplate reader (CLARIOstar) and conducted as described 1,2 with some modifications. The percentage inhibition of compounds against porcine PDHc E1 was assayed at a final concentration of 250 µM. The reaction buffer (50 mM KH 2PO4 and 1 mM MgCl 2, pH 7) contained 50 µM ThDP (or 125 µM in the competition assay), 0.25 mM DCPIP, and 2 mg/ml porcine PDHc E1. The reaction mixture […]
was preincubated at 37 °C for 30 min, then the reaction was initiated by adding pyruvate to a final […]
concentration of 50 mM. To determine the half-maximal inhibitory concentration (IC 50 ), ThDP […]
concentration was lowered to 10 µM, and inhibitor concentration was varied (0.4-200 µM). Specific […]
activity was calculated using the molar extinction coefficient of DCPIP, 21 mM -1 cm-1.3 The enzyme […]
IC50 values were calculated from non-linear regression curve fitting using GraphPad Prism.

S. cerevisiae PDC = target: T2, S. cerevisiae PDC (Saccharomyces cerevisiae, UniProt P06169); assay: S. cerevisiae PDC inhibitory activity assay (DCPIP reduction); details: compounds insufficiently soluble were excluded; for inhibition at 1500 µM: read-out: Inhibition (%) Yeast PDC
T2 construct: purchased Sigma
T2 sequence (P06169 2-563 limits assumed): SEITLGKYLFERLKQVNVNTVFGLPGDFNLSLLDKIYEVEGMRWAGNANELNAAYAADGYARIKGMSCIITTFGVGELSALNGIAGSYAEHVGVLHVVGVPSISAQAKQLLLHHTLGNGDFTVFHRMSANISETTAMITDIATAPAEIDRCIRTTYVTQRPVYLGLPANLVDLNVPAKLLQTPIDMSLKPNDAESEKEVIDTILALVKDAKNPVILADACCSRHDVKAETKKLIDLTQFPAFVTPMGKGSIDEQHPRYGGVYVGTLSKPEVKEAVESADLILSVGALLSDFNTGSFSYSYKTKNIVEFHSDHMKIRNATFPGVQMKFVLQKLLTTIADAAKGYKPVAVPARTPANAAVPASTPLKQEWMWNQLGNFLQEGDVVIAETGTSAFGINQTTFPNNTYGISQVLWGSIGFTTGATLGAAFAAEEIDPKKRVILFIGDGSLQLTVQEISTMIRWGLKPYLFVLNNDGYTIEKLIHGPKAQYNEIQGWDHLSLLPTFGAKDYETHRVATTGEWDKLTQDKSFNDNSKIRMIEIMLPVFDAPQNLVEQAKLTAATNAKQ
Protocol: S. cerevisiae PDC inhibitory activity assay. S. cerevisiae PDC was purchased from Sigma. Its activity was determined by monitoring DCPIP reduction at 600 nm using a microplate reader (CLARIOstar) and conducted as described 1,2 with some modifications. The percentage inhibition of compounds was assayed at a final concentration of 1500 µM. The reaction buffer (50 mM KH 2PO4 and 1 mM MgCl 2, pH 7) contained 300 µM ThDP (or 750 µM in the competition assay), 0.27 mM DCPIP, and 0.15 mg/ml S. cerevisiae PDC. The reaction mixture was preincubated at 37 °C for 60 min, then reaction was initiated by adding pyruvate to a final concentration of 70 mM. Specific activity was calculated using the molar extinction coefficient of DCPIP, 21 mM -1 cm -1.3 […]

A. viridans PO = target: T3, A. viridans PO (Aerococcus viridans, UniProt A9X9K8); assay: A. viridans PO inhibitory activity assay (quinoneimine dye)
T3 sequence (A9X9K8 1-592): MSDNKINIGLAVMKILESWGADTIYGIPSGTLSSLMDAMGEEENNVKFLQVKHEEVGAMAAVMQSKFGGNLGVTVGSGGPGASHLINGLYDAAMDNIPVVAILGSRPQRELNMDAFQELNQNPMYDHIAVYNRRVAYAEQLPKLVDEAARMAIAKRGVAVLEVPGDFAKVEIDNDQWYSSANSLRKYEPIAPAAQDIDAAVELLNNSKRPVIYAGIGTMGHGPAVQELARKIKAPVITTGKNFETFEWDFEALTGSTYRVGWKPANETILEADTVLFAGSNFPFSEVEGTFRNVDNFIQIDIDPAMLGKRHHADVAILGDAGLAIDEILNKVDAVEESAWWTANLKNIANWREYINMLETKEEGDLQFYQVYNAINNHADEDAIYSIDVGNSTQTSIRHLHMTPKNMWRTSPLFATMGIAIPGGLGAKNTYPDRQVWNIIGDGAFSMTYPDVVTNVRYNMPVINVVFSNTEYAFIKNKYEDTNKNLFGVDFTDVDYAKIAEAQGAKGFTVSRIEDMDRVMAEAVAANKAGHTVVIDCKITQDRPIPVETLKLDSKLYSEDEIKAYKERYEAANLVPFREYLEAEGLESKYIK
Protocol: A. viridans PO inhibitory activity assay. A. viridans PO and horseradish peroxidase were purchased from Sigma. A. viridans PO activity was determined by monitoring appearance of quinoneimine dye at 550 nm using a microplate reader (CLARIOstar) and conducted as described 1 with some modifications.
The percentage inhibition of compounds against A. viridans PO was assayed at a final concentration of 250 µM. The reaction buffer (50 mM KH 2PO4 and 10 mM MgCl 2, pH 5.9) contained 50 µM ThDP (or 125 µM in the competition assay), 10 µM flavin adenine dinucleotide (FAD), 0.15% 4-Aminoantipyrine, 0.3% N-Ethyl-N-(2-hydroxy-3-sulfopropyl)-m-toluidine (EHSPT), 50 µg/mL horseradish peroxidase and 0.35 U/mL A. viridans PO. The reaction mixture was preincubated at 37 °C for 30 min, then reaction was initiated by adding pyruvate to a final concentration of 50 mM. To determine the IC 50, inhibitor concentration was varied (2-1000 µM) with ThDP concentration at 50 µM. 1 unit of PO activity is defined as 1 μmol of hydrogen peroxide produced per minute. The enzyme IC 50 values were calculated as described for the PDHc E1 assay. […]

[1] = [Compound] = 250 μM, [ThDP] = 50 μM
[2] = [Compound] = 1.5 mM, [ThDP] = 0.3 mM
[3] = increased ThDP: [Compound] = 250 μM, [ThDP] = 125 μM
[4] = increased ThDP: [Compound] = 1500 μM, [ThDP] = 750 μM

Row | SMILES | Inhibition (%) PDHc E1 (porcine PDHc E1; [1]) [%] | Inhibition (%) Yeast PDC (S. cerevisiae PDC; [2]) | Inhibition (%) PO (A. viridans PO; [1]) [%] | Inhibition (%) PDHc E1 (porcine PDHc E1; [3]) [%] | Inhibition (%) Yeast PDC (S. cerevisiae PDC; [4]) | Inhibition (%) PO (A. viridans PO; [3]) [%] | L.E. (ligand efficiency) PDHc E1 (porcine PDHc E1; binding energy in kcal mol^–1 derived from the KI value per heavy atom) | inhibition at 1500 µM (S. cerevisiae PDC; [2]) [%] | inhibition at 1500 µM (S. cerevisiae PDC; [4]) [%] | IC50 (A. viridans PO; [ThDP] 50 μM) [µM] | Ki (A. viridans PO; determined according to the KM for ThDP) [µM]
1 | COc1ccccc1C(=O)NCCCc1cn(Cc2cnc(C)nc2N)nn1 [Compound 22b] | 58 ± 3 | Insoluble | < 20 | – | – | – | – | – | – | – | –
2 | Cc1ncc(Cn2cc(CCOC(=O)c3cccc(C#N)c3)nn2)c(N)n1 [Compound 14a] | 71 ± 4 | Insoluble | < 20 | – | – | – | – | – | – | – | –
3 | Cc1ncc(Cn2cc(CCCn3cc(-c4ccccc4)nn3)nn2)c(N)n1 [Compound 15b] | 65 ± 4 | Insoluble | < 20 | 40 ± 4 | Insoluble | <20 | – | – | – | – | –
4 | Cc1ncc(Cn2cc(CCCCNS(=O)(=O)C(F)(F)F)nn2)c(N)n1 [Compound 18c] | 71 ± 3 | Insoluble | 22 ± 4 | – | – | – | – | – | – | – | –
5 | Cc1ncc(Cn2cc(CCCCn3cc(-c4ccccc4)nn3)nn2)c(N)n1 [Compound 15c] | > 90 | Insoluble | < 20 | 75 ± 4 | Insoluble | <20 | – | – | – | – | –
6 | COc1ccc(-c2cn(CCc3cn(Cc4cnc(C)nc4N)nn3)nn2)cc1 [Compound 17a] | 46 ± 4 | Insoluble | < 20 | <20 | Insoluble | <20 | – | – | – | – | –
7 | COc1ccc(-c2cn(CCCc3cn(Cc4cnc(C)nc4N)nn3)nn2)cc1 [Compound 17b] | 71 ± 2 | Insoluble | < 20 | 45 ± 3 | Insoluble | <20 | – | – | – | – | –
8 | Cc1ncc(Cn2cc(CCCCC(=O)NO)nn2)c(N)n1 [Compound 24c] | > 90 | – | 42 ± 5 | 73 ± 4 | – | 24 ± 4 | 0.48 | 63 ± 4 | 37 ± 4 | 232 ± 23 | 23.2
9 | Cc1ncc(Cn2cc(CCOC(=O)c3cccc(-c4noc(C(F)(F)F)n4)c3)nn2)c(N)n1 [Compound 13a] | 72 ± 2 | Insoluble | < 20 | – | – | – | – | – | – | – | –
10 | Cc1ncc(Cn2cc(CCCn3cc(-c4ccc(F)cc4)nn3)nn2)c(N)n1 [Compound 16b] | 66 ± 4 | Insoluble | < 20 | 43 ± 2 | Insoluble | <20 | – | – | – | – | –
11 | Cc1ncc(Cn2cc(CCC(=O)Nc3ccccc3N)nn2)c(N)n1 [Compound 26a] | 75 ± 5 | – | < 20 | – | – | – | – | < 20 | – | – | –
12 | Cc1ncc(C[n+]2csc(CCO[P@@](=O)(O)OP(=O)(O)O)c2C)c(O)n1 [OxThDP 7b, oxythiamine diphosphate, reference compound] | > 90 | – | 48 ± 4 | 75 ± 3 | – | 32 ± 5 | – | 81 ± 3 | 63 ± 3 | – | –
13 | COc1cccc(C(=O)NCCCCc2cn(Cc3cnc(C)nc3N)nn2)c1 [Compound 21c] | 60 ± 5 | Insoluble | < 20 | – | – | – | – | – | – | – | –
14 | Cc1ncc(Cn2cc(CCCCn3cc(-c4ccc(F)cc4)nn3)nn2)c(N)n1 [Compound 16c] | > 90 | Insoluble | < 20 | 79 ± 2 | Insoluble | <20 | – | – | – | – | –
15 | COc1cccc(C(=O)NCCCc2cn(Cc3cnc(C)nc3N)nn2)c1 [Compound 21b] | 61 ± 2 | – | < 20 | – | – | – | – | 38 ± 5 | – | – | –
